From patent US11339171B2, “MDM2 inhibitors” (Gan & Lee Pharmaceuticals, priority 2017, dated 2022)
Where two headings read alike, the source gives them in different places.

What was measured:
[1] = system: human osteosarcoma cell line SJSA-1; test: Inhibition of proliferation of human osteosarcoma cell line SJSA-1 (DAPI staining, In Cell Analyzer)
Procedure: 2.2 Experiment Preparation:
2.2.1 Preparation of a culture medium for human osteosarcoma cell line SJSA-1: RPMI1640+10% FBS+1% penicillin/streptomycin
2.2.2 Preparation of a test compound solution:
a. the test compound solution with a certain concentration was taken, and diluted with the culture medium to obtain a compound solution with a final concentration of 20 μM;
b. 200 μL of a culture medium containing 0.2% DMSO (dimethyl sulfoxide) was added into H2-H10 of a 96-well plate; 300 μl of the above solution was added into H1; and
c. 100 μL was taken out from well H1, added into H2, and mixed well; then 100 μl of the resultant solution was taken and added into H3, and dilution was carried out in sequence until H9 to obtain the 3-fold serial dilution of the test compound.
2.3 Experimental Process:
2.3.1 SJSA-1 cells were inoculated into a 96-well cell plate with black transparent bottom at 4000 cells/100 μl/well, and cultured overnight at 37° C.;
2.3.3 Fixation: the cell plate was taken out, the culture medium was removed, and 50 μL of 4% paraformaldehyde solution was added to each well to fix for 10 min;
2.3.4 50 μl of 0.1 M glycine was added to neutralize for 10 min;
2.3.5 Washing was performed with 1×PBS (phosphate buffer solution pH7.2) twice;
2.3.6 Permeabilization: 50 μL of 0.2% TritonX-100 (Triton) was added per well, and permeabilization was carried out at room temperature for 10 min;
2.3.7 Washing was performed with 1×PBS (phosphate buffer solution pH7.2) twice;
2.3.9 Washing was performed with 1×PBS (phosphate buffer solution pH7.2) for three times; and
2.3.10 Scanning and analysis were performed by In cell analyzer.
The inhibition rate of each compound at each concentration point was calculated according to the following formula, and curve fitting was performed by GraphPad Prism 6.0 software to obtain the IC50 value.

MDM2 = target: T1, MDM2 (Homo sapiens, UniProt Q00987); test: Inhibition test of MDM2-P53 (GST-MDM2, Biotin-P53, Anti-GST-Tb, SA-XL665); format: binding
T1 construct: made in house
T1 sequence (Q00987 whole entry): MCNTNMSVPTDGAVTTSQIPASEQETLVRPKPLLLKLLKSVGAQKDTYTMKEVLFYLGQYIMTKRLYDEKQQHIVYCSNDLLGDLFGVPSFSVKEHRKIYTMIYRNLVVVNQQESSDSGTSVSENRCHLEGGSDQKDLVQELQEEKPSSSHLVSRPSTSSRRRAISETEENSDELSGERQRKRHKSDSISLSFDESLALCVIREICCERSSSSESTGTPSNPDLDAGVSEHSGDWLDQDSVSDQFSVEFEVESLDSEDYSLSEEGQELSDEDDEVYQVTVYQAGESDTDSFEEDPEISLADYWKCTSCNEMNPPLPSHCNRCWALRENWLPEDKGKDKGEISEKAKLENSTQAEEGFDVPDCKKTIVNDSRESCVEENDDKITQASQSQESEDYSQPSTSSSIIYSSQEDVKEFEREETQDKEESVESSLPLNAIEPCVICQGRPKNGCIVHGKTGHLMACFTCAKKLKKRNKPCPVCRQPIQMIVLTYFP
How it was run: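 Binding was measured by TR-FRET with GST-MDM2 at 4 nM final in PBS with 0.1% BSA, 5 mM DTT and 1 mM AEBSF. Compounds were tested as twelve-point 5-fold dilutions and incubated with the detection mix for 90 min at 25 °C with shaking before plate-reader reading and curve fitting.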

[2] = Homo sapiens, SJSA-1, 72 h, read-out: IC50 (nM), inhibitory activity on proliferation of human osteosarcoma cell line SJSA-1, SJSA-1, incubated 72 h

Row | Compound | IC50 [1, 2] | IC50 ([1]; read-out: IC50 (nM), inhibitory activity on proliferation of human osteosarcoma cell line SJSA-1, SJSA-1, incubated 72 h) | IC50 (MDM2)
1 | COc1ncc(-c2nc3c(n2C(C)C)[C@]2(C(=O)Nc4cc(Cl)ccc42)N(c2cc(Cl)ccc2OC)C3=O)c(OC)n1 [Example R-17, (R)-6-chloro-5′-(5-chloro-2-methoxyphenyl)-2′-(2,4-dimethoxypyrimidin-5-yl)-3′-isopropyl-3′H-spiro[dihydroindole-3,4′-pyrrolo[3,4-d]imidazole]-2,6′(5′H)-dione] | 1310 nM | 2440 nM | 0.0494 µM
2 | COc1ccncc1-c1nc2c(n1C(C)C)[C@]1(C(=O)Nc3cc(Cl)ccc31)N(c1cc(Cl)ccc1C)C2=O [Example R-18, (R)-6-chloro-5′-(5-chloro-2-methylphenyl)-3′-isopropyl-2′-(4-methoxypyridin-3-yl)-3′H-spiro[dihydroindole-3,4′-pyrrolo[3,4-d]imidazole]-2,6′(5′H)-dione] | 1620 nM |  | 0.158 µM
3 | COc1ncc(-c2nc3c(n2C(C)C)[C@]2(C(=O)Nc4cc(Cl)ccc42)N(c2ccc(C)c(Cl)c2)C3=O)c(OC)n1 [Example R-20, (R)-6-chloro-5′-(3-chloro-4-methylphenyl)-2′-(2,4-dimethoxypyrimidin-5-yl)-3′-isopropyl-3′H-spiro[dihydroindole-3,4′-pyrrolo[3,4-d]imidazole]-2,6′(5′H)-dione] | 4010 nM |  | 0.256 µM
4 | CNC(=O)c1ccc(OC)c(-c2nc3c(n2C(C)C)[C@]2(C(=O)Nc4cc(Cl)ccc42)N(c2cc(Cl)ccc2C)C3=O)c1 [Example R-21, (R)-3-(6-chloro-5′-(5-chloro-2-methylphenyl)-3′-isopropyl-2,6′-dioxo-5′,6′-dihydro-3′H-spiro[dihydroindole-3,4′-pyrrolo[3,4-d]imidazole]-2′-yl)-4-methoxy-N-methylbenzamide] | 5230 nM |  | 0.223 µM
5 | COc1ccc(C(=O)N(C)C)cc1-c1nc2c(n1C(C)C)[C@]1(C(=O)Nc3cc(Cl)ccc31)N(c1cc(Cl)ccc1C)C2=O [Example R-22, (R)-3-(6-chloro-5′-(5-chloro-2-methylphenyl)-3′-isopropyl-2,6′-dioxo-5′,6′-dihydro-3′H-spiro[dihydroindole-3,4′-pyrrolo[3,4-d]imidazole]-2′-yl)-4-methoxy-N,N-dimethylbenzamide] | 6950 nM |  | 0.627 µM
6 | COc1cc(N(C)C)ccc1-c1nc2c(n1C(C)C)[C@]1(C(=O)Nc3cc(Cl)ccc31)N(c1cc(Cl)ccc1C)C2=O [Example R-23, (R)-6-chloro-5′-(5-chloro-2-methylphenyl)-2′-(4-(dimethylamino)-2-methoxyphenyl)-3′-isopropyl-3′H-spiro[dihydroindole-3,4′-pyrrolo[3,4-d]imidazole]-2,6′(5′H)-dione] | 354 nM |  | 0.175 µM
7 | COc1cc(C)ccc1-c1nc2c(n1C(C)C)[C@]1(C(=O)Nc3cc(Cl)ccc31)N(c1cc(Cl)ccc1C)C2=O [Example R-24, (R)-6-chloro-5′-(5-chloro-2-methylphenyl)-3′-isopropyl-2′-(2-methoxy-4-methylphenyl)-3′H-spiro[dihydroindole-3,4′-pyrrolo[3,4-d]imidazole]-2,6′(5′H)-dione] | 872 nM |  | 0.392 µM
8 | CNc1ccc(-c2nc3c(n2C(C)C)[C@]2(C(=O)Nc4cc(Cl)ccc42)N(c2cc(Cl)ccc2C)C3=O)c(OC)c1 [Example R-25, (R)-6-chloro-5′-(5-chloro-2-methylphenyl)-3′-isopropyl-2′-(2-methoxy-4-(methylamine)phenyl)-3′H-spiro[dihydroindole-3,4′-pyrrolo[3,4-d]imidazole]-2,6′(5′H)-dione] | 265 nM |  | 0.0519 µM
9 | CCn1c(-c2cnc(OC)nc2OC)nc2c1[C@]1(C(=O)Nc3cc(Cl)ccc31)N(c1cc(Cl)ccc1C)C2=O [Example R-26, (R)-6-chloro-5′-(5-chloro-2-methylphenyl)-2′-(2,4-dimethoxypyrimidin-5-yl)-3′-ethyl-3′H-spiro[dihydroindole-3,4′-pyrrolo[3,4-d]imidazole]-2,6′(5′H)-dione] | 3650 nM |  | 0.236 µM
10 | COc1ccc(C(N)=O)cc1-c1nc2c(n1C(C)C)[C@]1(C(=O)Nc3cc(Cl)ccc31)N(c1cc(Cl)ccc1C)C2=O [Example R-29, (R)-3-(6-chloro-5′-(5-chloro-2-methylphenyl)-3′-isopropyl-2,6′-dioxo-5′,6′-dihydro-3′H-spiro[dihydroindole-3,4′-pyrrolo[3,4-d]imidazole]-2′-yl)-4-methoxybenzamide] | 10900 nM |  | 0.0936 µM
11 | Cc1ccc(Cl)cc1N1C(=O)c2nc(-c3ccccc3OC(F)(F)F)n(C(C)C)c2[C@]12C(=O)Nc1cc(Cl)ccc12 [Example R-31, (R)-6-chloro-5′-(5-chloro-2-methylphenyl)-3′-isopropyl-2′-(2-(trifluoromethoxy)phenyl)-3′H-spiro[dihydroindole-3,4′-pyrrolo[3,4-d]imidazole]-2,6′(5′H)-dione] | 3580 nM |  | 1.4 µM
12 | COc1cc(C(C)C)ccc1-c1nc2c(n1C(C)C)[C@]1(C(=O)Nc3cc(Cl)ccc31)N(c1cc(Cl)ccc1C)C2=O [Example R-32, (R)-6-chloro-5′-(5-chloro-2-methylphenyl)-3′-isopropyl-2′-(4-isopropyl-2-methoxyphenyl)-3′H-spiro[dihydroindole-3,4′-pyrrolo[3,4-d]imidazole]-2,6′(5′H)-dione] | 8200 nM |  | 1.1 µM
13 | CCc1ccc(-c2nc3c(n2C(C)C)[C@]2(C(=O)Nc4cc(Cl)ccc42)N(c2cc(Cl)ccc2C)C3=O)c(OC)c1 [Example R-33, (R)-6-chloro-5′-(5-chloro-2-methylphenyl)-2′-(4-ethyl-2-methoxyphenyl)-3′-isopropyl-3′H-spiro[dihydroindole-3,4′-pyrrolo[3,4-d]imidazole]-2,6′(5′H)-dione] | 4890 nM |  | 0.592 µM
14 | COc1cc(-c2nc3c(n2C(C)C)[C@]2(C(=O)Nc4cc(Cl)ccc42)N(c2cc(Cl)ccc2C)C3=O)c(OC)cn1 [Example R-40, (R)-6-chloro-5′-(5-chloro-2-methylphenyl)-2′-(2,5-dimethoxypyridin-4-yl)-3′-isopropyl-3′H-spiro[dihydroindole-3,4′-pyrrolo[3,4-d]imidazole]-2,6′(5′H)-dione] | 3090 nM |  | 0.322 µM
15 | COc1ncc(-c2nc3c(n2C(C)C)[C@]2(C(=O)Nc4cc(Cl)ccc42)N(c2cc(Cl)cnc2C)C3=O)c(OC)n1 [Example R-42, (R)-6-chloro-5′-(5-chloro-2-methylpyridin-3-yl)-2′-(2,4-dimethoxypyrimidin-5-yl)-3′-isopropyl-3′H-spiro[dihydroindole-3,4′-pyrrolo[3,4-d]imidazole]-2,6′(5′H)-dione] | 4560 nM |  | 0.364 µM
16 | COc1ncc(-c2nc3c(n2C(C)C)[C@]2(C(=O)Nc4cc(Cl)ccc42)N(c2cc(Cl)ccc2F)C3=O)c(OC)n1 [Example R-44, (R)-6-chloro-5′-(5-chloro-2-fluorophenyl)-2′-(2,4-dimethoxypyrimidin-5-yl)-3′-isopropyl-3′H-spiro[dihydroindole-3,4′-pyrrolo[3,4-d]imidazole]-2,6′(5′H)-dione] | 1330 nM |  | 0.0511 µM
17 | COc1ncc(-c2nc3c(n2C(C)C)[C@]2(C(=O)Nc4cc(Cl)ccc42)N(c2cc(F)cc(Cl)c2)C3=O)c(OC)n1 [Example R-45, (R)-6-chloro-5′-(3-chloro-5-fluorophenyl)-2′-(2,4-dimethoxypyrimidin-5-yl)-3′-isopropyl-3′H-spiro[dihydroindole-3,4′-pyrrolo[3,4-d]imidazole]-2,6′(5′H)-dione] | 4310 nM |  | 0.171 µM
18 | COc1cc(CN(C)C)ccc1-c1nc2c(n1C(C)C)[C@]1(C(=O)Nc3cc(Cl)ccc31)N(c1cc(Cl)ccc1C)C2=O [Example R-47, (R)-6-chloro-5′-(5-chloro-2-methylphenyl)-2′-(4-((dimethylamino)methyl)-2-methoxyphenyl)-3′-isopropyl-3′H-spiro[dihydroindole-3,4′-pyrrolo[3,4-d]imidazole]-2,6′(5′H)-dione] | 3850 nM |  | 0.21 µM
19 | COc1ncc(-c2nc3c(n2C(C)C)[C@]2(C(=O)Nc4cc(Cl)ccc42)N(c2ccc(OC)c(Cl)c2)C3=O)c(OC)n1 [Example R-48, (R)-6-chloro-5′-(3-chloro-4-methoxyphenyl)-2′-(2,4-dimethoxypyrimidin-5-yl)-3′-isopropyl-3′H-spiro[dihydroindole-3,4′-pyrrolo[3,4-d]imidazole]-2,6′(5′H)-dione] | 3630 nM |  | 0.196 µM
20 | COc1cc(N)ccc1-c1nc2c(n1C(C)C)[C@]1(C(=O)Nc3cc(Cl)ccc31)N(c1cc(Cl)ccc1C)C2=O [Example R-49, (R)-2′-(4-amino-2-methoxyphenyl)-6-chloro-5′-(5-chloro-2-methylphenyl)-3′-isopropyl-3′H-spiro[dihydroindole-3,4′-pyrrolo[3,4-d]imidazole]-2,6′(5′H)-dione] | 1490 nM |  | 0.0714 µM
21 | COc1ncc(-c2cc3c(n2C(C)C)[C@]2(C(=O)Nc4cc(Cl)ccc42)N(c2cc(Cl)ccc2C)C3=O)c(OC)n1 [Example R-50, (R)-6-chloro-5′-(5-chloro-2-methylphenyl)-2′-(2,4-dimethoxypyrimidin-5-yl)-1′-isopropyl-1′H-spiro[dihydroindole-3,6′-pyrrolo[3,4-b]pyrrole]-2,4′(5′H)-dione] | 8430 nM |  | 20.4 µM
22 | COc1ncc(-c2nc3c(n2C(C)C)[C@]2(C(=O)Nc4cc(Cl)ccc42)N(c2cc(C)cc(Cl)c2)C3=O)c(OC)n1 [Example R-51, (R)-6-chloro-5′-(3-chloro-5-methylphenyl)-2′-(2,4-dimethoxypyrimidin-5-yl)-3′-isopropyl-3′H-spiro[dihydroindole-3,4′-pyrrolo[3,4-d]imidazole]-2,6′(5′H)-dione] | 9520 nM |  | 0.547 µM
